# Measured values reported in patent publication US10513521B2, “Compositions and methods for inhibiting BMP” (The Brigham and Women's Hospital, Inc., priority 2014, dated 2019).
# How the values were obtained:
# ALK1 = ALK1 (Homo sapiens, UniProt P37023); assay: TR-FRET enzymatic ALK kinase assay, ALK1
# Method: (§1) Briefly, the ALKs enzymatic assay was initiated by dispense 2.5 μl enzyme in 1× kinase reaction buffer. The assay plate was then added with compounds followed by incubation at room temperature for 10 minutes. Then 2.5 μl/well substrate was added.
# ALK2 = target: T1, ALK2 (Homo sapiens, UniProt Q04771); assay: TR-FRET enzymatic ALK kinase assay, ALK2
# T1 sequence (Q04771 21-509): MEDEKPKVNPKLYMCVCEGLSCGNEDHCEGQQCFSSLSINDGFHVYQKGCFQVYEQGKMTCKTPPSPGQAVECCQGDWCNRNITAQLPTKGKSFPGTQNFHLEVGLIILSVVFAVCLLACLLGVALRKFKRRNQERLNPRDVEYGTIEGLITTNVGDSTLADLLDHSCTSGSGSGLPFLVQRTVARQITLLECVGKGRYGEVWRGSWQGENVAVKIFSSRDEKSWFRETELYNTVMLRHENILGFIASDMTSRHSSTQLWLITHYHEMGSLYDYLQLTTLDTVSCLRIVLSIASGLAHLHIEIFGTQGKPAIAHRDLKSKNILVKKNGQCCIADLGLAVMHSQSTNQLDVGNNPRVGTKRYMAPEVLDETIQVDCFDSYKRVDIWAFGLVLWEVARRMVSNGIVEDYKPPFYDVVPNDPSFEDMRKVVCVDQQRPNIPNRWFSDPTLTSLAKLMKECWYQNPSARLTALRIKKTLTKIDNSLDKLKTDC
# Method: as §1
# ALK3 = ALK3 (Homo sapiens, UniProt P36894); assay: TR-FRET enzymatic ALK kinase assay, ALK3
# Chain of ALK3 (P36894 24-532): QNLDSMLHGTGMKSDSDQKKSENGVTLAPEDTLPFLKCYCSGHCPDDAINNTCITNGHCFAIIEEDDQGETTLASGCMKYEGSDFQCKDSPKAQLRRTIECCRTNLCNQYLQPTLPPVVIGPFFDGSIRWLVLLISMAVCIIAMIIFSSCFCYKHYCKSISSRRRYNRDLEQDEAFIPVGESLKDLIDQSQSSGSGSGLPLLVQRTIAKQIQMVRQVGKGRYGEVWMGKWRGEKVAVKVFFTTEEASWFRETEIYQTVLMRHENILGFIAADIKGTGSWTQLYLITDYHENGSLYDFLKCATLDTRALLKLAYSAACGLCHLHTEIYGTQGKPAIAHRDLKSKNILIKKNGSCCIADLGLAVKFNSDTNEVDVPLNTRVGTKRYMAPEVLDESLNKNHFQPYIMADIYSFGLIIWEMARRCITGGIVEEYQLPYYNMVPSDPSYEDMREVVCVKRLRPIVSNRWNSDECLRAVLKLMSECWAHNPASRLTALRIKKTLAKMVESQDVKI
# Method: as §1
# ALK4 = target: T2, ALK4 (Homo sapiens, UniProt P36896); assay: TR-FRET enzymatic ALK kinase assay, ALK4
# T2 sequence (P36896 24-505): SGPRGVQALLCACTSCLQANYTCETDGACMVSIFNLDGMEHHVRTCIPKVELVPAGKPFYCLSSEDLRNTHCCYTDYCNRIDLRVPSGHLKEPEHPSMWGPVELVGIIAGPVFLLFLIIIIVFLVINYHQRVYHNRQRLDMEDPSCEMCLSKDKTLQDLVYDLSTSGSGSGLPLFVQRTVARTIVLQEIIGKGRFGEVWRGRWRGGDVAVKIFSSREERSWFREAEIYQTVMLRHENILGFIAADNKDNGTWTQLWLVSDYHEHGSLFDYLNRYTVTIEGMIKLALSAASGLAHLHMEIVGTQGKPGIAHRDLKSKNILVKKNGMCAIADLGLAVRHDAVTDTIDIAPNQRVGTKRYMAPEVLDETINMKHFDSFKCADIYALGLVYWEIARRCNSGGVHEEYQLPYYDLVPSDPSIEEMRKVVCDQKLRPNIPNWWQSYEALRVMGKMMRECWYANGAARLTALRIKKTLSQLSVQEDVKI
# Method: as §1
# ALK5 = target: T3, ALK5 (Homo sapiens, UniProt P36897); assay: TR-FRET enzymatic ALK kinase assay, ALK5
# T3 sequence (P36897 34-503): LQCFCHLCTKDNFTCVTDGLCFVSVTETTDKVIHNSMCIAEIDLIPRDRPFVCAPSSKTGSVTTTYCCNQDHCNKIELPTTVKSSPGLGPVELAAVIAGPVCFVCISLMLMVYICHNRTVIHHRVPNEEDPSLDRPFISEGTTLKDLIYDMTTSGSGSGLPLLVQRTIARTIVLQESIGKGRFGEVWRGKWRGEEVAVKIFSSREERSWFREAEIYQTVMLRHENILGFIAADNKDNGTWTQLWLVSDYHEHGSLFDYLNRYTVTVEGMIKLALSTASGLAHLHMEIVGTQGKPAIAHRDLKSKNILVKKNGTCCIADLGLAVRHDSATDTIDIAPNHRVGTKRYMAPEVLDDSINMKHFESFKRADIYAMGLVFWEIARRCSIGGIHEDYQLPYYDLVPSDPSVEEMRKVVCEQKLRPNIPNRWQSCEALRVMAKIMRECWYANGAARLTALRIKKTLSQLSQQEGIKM
# Method: Six ALK kinase enzyme assays were developed for determination of compound activities on ALK1, ALK2, ALK3, ALK4, ALK5 and ALK6.
# as §1
# ALK6 = ALK6 (Homo sapiens, UniProt O00238); assay: TR-FRET enzymatic ALK kinase assay, ALK6
# Chain of ALK6 (O00238 14-502): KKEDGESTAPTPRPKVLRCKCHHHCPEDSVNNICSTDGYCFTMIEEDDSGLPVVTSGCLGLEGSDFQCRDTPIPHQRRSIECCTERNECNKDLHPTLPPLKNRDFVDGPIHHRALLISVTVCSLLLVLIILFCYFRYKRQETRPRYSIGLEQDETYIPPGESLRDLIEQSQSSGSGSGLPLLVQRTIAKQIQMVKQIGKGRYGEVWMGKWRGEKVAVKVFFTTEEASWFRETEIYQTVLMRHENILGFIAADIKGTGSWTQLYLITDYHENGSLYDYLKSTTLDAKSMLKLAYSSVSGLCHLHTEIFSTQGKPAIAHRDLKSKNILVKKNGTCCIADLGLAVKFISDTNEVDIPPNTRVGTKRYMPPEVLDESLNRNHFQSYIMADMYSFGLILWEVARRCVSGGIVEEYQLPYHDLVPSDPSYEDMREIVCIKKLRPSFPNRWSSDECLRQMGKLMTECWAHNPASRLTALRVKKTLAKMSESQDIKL
# Method: as §1
# Chain of ALK1 (P37023 22-503): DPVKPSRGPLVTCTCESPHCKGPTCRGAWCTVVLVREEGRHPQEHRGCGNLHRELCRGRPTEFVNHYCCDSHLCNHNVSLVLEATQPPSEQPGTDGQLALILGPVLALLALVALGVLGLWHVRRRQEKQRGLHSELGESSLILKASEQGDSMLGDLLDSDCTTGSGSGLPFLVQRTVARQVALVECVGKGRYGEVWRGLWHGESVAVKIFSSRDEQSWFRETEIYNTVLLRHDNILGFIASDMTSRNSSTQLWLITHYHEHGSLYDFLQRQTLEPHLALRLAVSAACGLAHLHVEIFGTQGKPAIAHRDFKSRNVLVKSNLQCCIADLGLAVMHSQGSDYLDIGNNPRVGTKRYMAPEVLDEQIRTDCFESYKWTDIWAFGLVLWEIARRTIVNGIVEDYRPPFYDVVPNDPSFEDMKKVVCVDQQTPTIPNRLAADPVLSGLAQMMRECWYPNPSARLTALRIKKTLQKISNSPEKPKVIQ
SMILES,IC50 (ALK1) [nM],IC50 (ALK2) [nM],IC50 (ALK3) [nM],IC50 (ALK4) [nM],IC50 (ALK5) [nM],IC50 (ALK6) [nM]
"C[C@H](O)c1cccc(-c2cnn3cc(-c4ccc(OCCN5CCCC5)cc4)cnc23)c1 [Compound 200, (S)-1-(3-(6-(4-(2-(pyrrolidin-1-yl)ethoxy)phenyl)pyrazolo[1,5-a]pyrimidin-3-yl)phenyl)ethanol]",1300,68,1200,> 10000,> 10000,2300
"CC(O)c1cccc(-c2cnn3cc(-c4ccc(CCN5CCNCC5)cc4)cnc23)c1 (stereo not drawn) [Compound 171, 1-(3-(6-(4-(2-(piperazin-1-yl)ethyl)phenyl)pyrazolo[1,5-a]pyrimidin-3-yl)phenyl)ethanol]",1100,170,2000,> 10000,> 10000,> 10000
"C[S+](=O)([O-])c1cccc(-c2cnn3cc(-c4ccc(OC5(CN6CC(F)(F)C6)CC5)cc4)cnc23)c1 [Compound 176, 6-(4-(1-((3,3-difluoroazetidin-1-yl)methyl)cyclopropoxy)phenyl)-3-(3-(methylsulfonyl)phenyl)pyrazolo[1,5-a]pyrimidine]",720,68,2400,> 10000,> 10000,> 10000
"C[C@@H](O)c1cccc(-c2cnn3cc(-c4ccc(CCN5CCOCC5)cc4)cnc23)c1 [Compound 158, (R)-1-(3-(6-(4-(2-morpholinoethyl)phenyl)pyrazolo[1,5-a]pyrimidin-3-yl)phenyl)ethanol]",2500,250,> 10000,> 10000,> 10000,> 10000
"NC(c1cccc(-c2cnn3cc(-c4ccc(OCCN5CCCCC5)cc4)cnc23)c1)C(F)(F)F (stereo not drawn) [Compound 153, 2,2,2-trifluoro-1-(3-(6-(4-(2-(piperidin-1-yl)ethoxy)phenyl)pyrazolo[1,5-a]pyrimidin-3-yl)phenyl)ethanamine]",1400,110,4300,> 10000,> 10000,> 10000
"CC1CCN(c2ccc(-c3cnc4c(-c5ccc(S(N)(=O)=O)c6ccccc56)cnn4c3)cn2)CC1 [Compound 47, 4-(6-(6-(4-methylpiperidin-1-yl)pyridin-3-yl)pyrazolo[1,5-a]pyrimidin-3-yl)naphthalene-1-sulfonamide]",5700,2900,> 10000,> 10000,> 10000,> 10000
"CC(O)c1ccc(-c2cnn3cc(-c4ccc(N5[C@H](C)CNC[C@@H]5C)cc4)cnc23)c2ccccc12 (stereo partly drawn) [Compound 29, 1-(4-(6-(4-((2R,6S)-2,6-dimethylpiperazin-1-yl)phenyl)pyrazolo[1,5-a]pyrimidin-3-yl)naphthalen-1-yl)ethanol]",20,14,84,3540,5370,294
"C[C@@H](O)c1cccc(-c2cnn3cc(-c4ccc(CCN5CCC(O)C5)cc4)cnc23)c1 (stereo partly drawn) [Compound 155, 1-(4-(3-(3-((R)-1-hydroxyethyl)phenyl)pyrazolo[1,5-a]pyrimidin-6-yl)phenethyl)pyrrolidin-3-ol]",820,140,7300,> 10000,> 10000,> 10000
"C[S+](=O)([O-])c1cccc(-c2cnn3cc(-c4ccc(OC5(CN6C7CCC6CC7)CC5)cc4)cnc23)c1 [Compound 183, 6-(4-(1-(7-azabicyclo[2.2.1]heptan-7-ylmethyl)cyclopropoxy)phenyl)-3-(3-(methylsulfonyl)phenyl)pyrazolo[1,5-a]pyrimidine]",260,20,1900,> 10000,> 10000,> 10000
"C[C@@H](O)c1cccc(-c2cnn3cc(-c4ccc(OCCN5CCCCC5)cc4)cnc23)c1 [Compound 149, (R)-1-(3-(6-(4-(2-(piperidin-1-yl)ethoxy)phenyl)pyrazolo[1,5-a]pyrimidin-3-yl)phenyl)ethanol]",4500,180,6800,> 10000,> 10000,> 10000
"C[C@@H](O)c1cccc(-c2cnn3cc(-c4ccc(OCCN5CCCC5)cc4)cnc23)c1 [Compound 160, (R)-1-(3-(6-(4-(2-(pyrrolidin-1-yl)ethoxy)phenyl)pyrazolo[1,5-a]pyrimidin-3-yl)phenyl)ethanol]",1500,190,3300,8900,> 10000,> 10000
"CS(=O)(=O)c1cccc(-c2cnn3cc(-c4ccc(CCN5CCOCC5)cc4)cnc23)c1 [Compound 131, 4-(4-(3-(3-(methylsulfonyl)phenyl)pyrazolo[1,5-a]pyrimidin-6-yl)phenethyl)morpholine]",760,150,2300,> 10000,> 10000,5100

# The remaining lines, values ahead:
IC50 (ALK1) [nM],IC50 (ALK2) [nM],IC50 (ALK3) [nM],IC50 (ALK4) [nM],IC50 (ALK5) [nM],IC50 (ALK6) [nM],SMILES
1300,62,3800,> 10000,> 10000,> 10000,"NC(c1cccc(-c2cnn3cc(-c4ccc(OC5(CN6CCC(O)CC6)CC5)cc4)cnc23)c1)C(F)(F)F (stereo not drawn) [Compound 180, 1-((1-(4-(3-(3-(1-amino-2,2,2-trifluoroethyl)phenyl)pyrazolo[1,5-a]pyrimidin-6-yl)phenoxy)cyclopropyl)methyl)piperidin-4-ol]"
230,20,870,> 10000,> 10000,> 10000,"CS(=O)(=O)c1cccc(-c2cnn3cc(-c4ccc(OC5(CN6CCC(O)CC6)CC5)cc4)cnc23)c1 [Compound 194, 1-((1-(4-(3-(3-(methylsulfonyl)phenyl)pyrazolo[1,5-a]pyrimidin-6-yl)phenoxy)cyclopropyl)methyl)piperidin-4-ol]"
580,110,4900,> 10000,> 10000,> 10000,"CC(O)c1cccc(-c2cnn3cc(-c4ccc(C5CCCNC5)cc4)cnc23)c1 (stereo not drawn) [Compound 138, 1-(3-(6-(4-(piperidin-3-yl)phenyl)pyrazolo[1,5-a]pyrimidin-3-yl)phenyl)ethanol]"
4800,1700,> 10000,> 10000,> 10000,> 10000,"CC(O)c1cccc(-c2cnn3cc(-c4ccc(C(F)(F)CN5CCCCC5)cc4)cnc23)c1 (stereo not drawn) [Compound 127, 1-(3-(6-(4-(1,1-difluoro-2-(piperidin-1-yl)ethyl)phenyl)pyrazolo[1,5-a]pyrimidin-3-yl)phenyl)ethanol]"
1520,367,7830,16300,40400,16200,"CC(O)c1cccc2c(-c3cnn4cc(-c5ccc(N6[C@H](C)CNC[C@@H]6C)cc5)cnc34)cccc12 (stereo partly drawn) [Compound 33, 1-(5-(6-(4-((2R,6S)-2,6-dimethylpiperazin-1-yl)phenyl)pyrazolo[1,5-a]pyrimidin-3-yl)naphthalen-1-yl)ethanol]"
